# Experimental data as given in patent US20060035869A1, “Inhibitors of epoxide hydrolases for the treatment of hypertension” (THE REGENTS OF THE UNIVERSITY OF CALIFORNIA OFFICE OF …, priority 1999, published 2006).
# Read-outs that look alike come from different tables or passages of the source.
# Legend:
# [1] = molecular target: T1, Rat mEH (Rattus norvegicus, UniProt P07687); test: Inhibition of mammalian microsomal EH, 3H-cis-stilbene oxide assay; assay type: biochemical
# T1 sequence (P07687 1-455): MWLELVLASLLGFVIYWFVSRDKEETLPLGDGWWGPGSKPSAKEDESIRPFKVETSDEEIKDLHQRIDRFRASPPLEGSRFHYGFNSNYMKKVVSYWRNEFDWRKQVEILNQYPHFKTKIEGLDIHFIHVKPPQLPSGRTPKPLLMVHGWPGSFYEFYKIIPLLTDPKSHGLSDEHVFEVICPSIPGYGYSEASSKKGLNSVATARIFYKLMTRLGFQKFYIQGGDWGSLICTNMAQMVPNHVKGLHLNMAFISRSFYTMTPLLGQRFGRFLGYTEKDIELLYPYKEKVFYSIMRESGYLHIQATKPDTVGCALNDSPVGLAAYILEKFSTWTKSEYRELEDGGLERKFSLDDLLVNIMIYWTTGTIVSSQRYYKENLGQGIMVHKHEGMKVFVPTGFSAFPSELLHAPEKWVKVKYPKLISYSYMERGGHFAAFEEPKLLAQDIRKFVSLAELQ
# Procedure: (§1) The mixture was incubated at 30° C. for 5 minutes. […] Assays were performed in quadruplicate.
# [2] = molecular target: T2, human sEH (Homo sapiens, UniProt P34913); test: Inhibition of recombinant human soluble EH, spectrophotometric NEP2C assay; assay type: biochemical; settings: recombinant enzyme, NEP2C 40 μM, 30° C., pH 7.4
# T2 construct: made in house; host or cells: baculovirus expression system (insect cells)
# T2 sequence (P34913 1-555): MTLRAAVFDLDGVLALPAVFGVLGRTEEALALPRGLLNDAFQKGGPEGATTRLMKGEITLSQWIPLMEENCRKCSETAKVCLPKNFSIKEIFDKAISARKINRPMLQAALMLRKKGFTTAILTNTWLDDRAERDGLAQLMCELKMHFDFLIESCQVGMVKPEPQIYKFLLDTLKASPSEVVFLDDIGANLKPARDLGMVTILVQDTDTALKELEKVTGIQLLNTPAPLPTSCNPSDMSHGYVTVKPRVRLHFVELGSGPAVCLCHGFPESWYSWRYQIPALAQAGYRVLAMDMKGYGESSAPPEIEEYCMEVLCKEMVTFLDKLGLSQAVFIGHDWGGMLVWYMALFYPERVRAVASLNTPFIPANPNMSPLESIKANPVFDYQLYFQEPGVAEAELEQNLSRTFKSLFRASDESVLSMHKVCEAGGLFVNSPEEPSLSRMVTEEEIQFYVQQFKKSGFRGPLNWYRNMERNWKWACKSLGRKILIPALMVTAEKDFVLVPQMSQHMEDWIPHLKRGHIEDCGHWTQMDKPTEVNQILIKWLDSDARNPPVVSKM
# Procedure: (§2) Recombinant mouse sEH (MsEH) and human sEH (HsEH) were produced in a baculovirus expression system as previously reported. […] The expressed proteins were purified from cell lysate by affinity chromatography. […] Protein concentration was quantified using the Pierce BCA assay using bovine serum albumin as the calibrating standard.
# as §1
# [3] = molecular target: T3, mouse sEH (Mus musculus, UniProt P34914); test: Inhibition of recombinant mouse soluble EH, spectrophotometric NEP2C assay; assay type: biochemical
# T3 construct: made in house; host or cells: baculovirus expression system (insect cells)
# T3 sequence (P34914 1-554): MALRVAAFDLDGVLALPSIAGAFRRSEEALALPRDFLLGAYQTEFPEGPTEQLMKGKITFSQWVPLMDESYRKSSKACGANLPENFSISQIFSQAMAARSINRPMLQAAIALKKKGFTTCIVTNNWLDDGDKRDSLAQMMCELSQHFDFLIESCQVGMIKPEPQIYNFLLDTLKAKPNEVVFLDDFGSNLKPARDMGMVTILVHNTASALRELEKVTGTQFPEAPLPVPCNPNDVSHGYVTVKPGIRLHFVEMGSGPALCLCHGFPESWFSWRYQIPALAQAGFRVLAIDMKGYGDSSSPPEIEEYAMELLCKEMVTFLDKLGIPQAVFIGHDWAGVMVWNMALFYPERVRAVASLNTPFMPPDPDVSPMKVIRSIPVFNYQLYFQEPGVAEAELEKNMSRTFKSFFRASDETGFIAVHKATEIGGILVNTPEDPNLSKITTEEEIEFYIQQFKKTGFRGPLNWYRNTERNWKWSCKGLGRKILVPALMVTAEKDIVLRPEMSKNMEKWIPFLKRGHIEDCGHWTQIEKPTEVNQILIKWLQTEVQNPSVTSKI
# Procedure: as §2, §1
# [4] = molecular target: T4, M secta mEH (Manduca sexta, UniProt Q25489); test: Inhibition of recombinant insect microsomal EH; assay type: biochemical
# T4 sequence (Q25489 1-462): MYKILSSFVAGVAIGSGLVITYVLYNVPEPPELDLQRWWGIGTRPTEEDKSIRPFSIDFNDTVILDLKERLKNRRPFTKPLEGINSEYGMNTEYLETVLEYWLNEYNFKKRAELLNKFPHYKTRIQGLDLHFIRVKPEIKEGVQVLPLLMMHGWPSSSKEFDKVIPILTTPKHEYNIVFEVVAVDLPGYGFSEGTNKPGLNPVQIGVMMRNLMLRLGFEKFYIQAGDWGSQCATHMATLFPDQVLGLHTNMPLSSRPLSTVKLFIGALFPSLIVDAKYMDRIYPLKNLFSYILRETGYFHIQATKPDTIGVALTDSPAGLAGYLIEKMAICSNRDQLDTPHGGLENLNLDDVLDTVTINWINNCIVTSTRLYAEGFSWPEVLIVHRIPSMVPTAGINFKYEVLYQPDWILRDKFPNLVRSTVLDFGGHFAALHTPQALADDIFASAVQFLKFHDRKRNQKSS
# [5] = test system: leukotoxin/isoleukotoxin induced death; test: Protection of mice against leukotoxin/isoleukotoxin induced death; assay type: in vivo, mouse; settings: Swiss Webster mice, 400 mg/kg i.p. in corn oil 30 minutes before leukotoxin/isoleukotoxin methyl esters 700 mg/kg i.v.
# Procedure: Male Swiss Webster mice (25-28 g) were purchased from Simonsen, Gilroy, Calif. The animals had free access to water and food. […] After 30 minutes of the pretreatment, the mice were treated intravenously through the tail vein with a 1:1 mixture of leukotoxin/isoleukotoxin methyl esters in ethanol (700 mg/kg, 1.0 ml/kg).
# The mice died of respiratory distress after exposure to leukotoxin/isoleukotoxin. The lethal reactions took place sequentially with accelerated breathing, opening of the mouth to assist breathing, and bloody fluid running from the nose.
# [6] = recombinant enzyme, NEP2C 40 μM, 30° C., pH 7.4, read-out: Mouse sEH IC50
Structure (SMILES),IC50 [1] [µM],IC50 [2] [µM],other results
CCCCCCCCCCCCNC(=O)NCCF [Compound 238],9.9 ± 0.2,57 ± 1,"IC50 [3, 6]: 50 ± 5 µM"
[O-][S+](Cc1ccccc1)Cc1ccccc1 [Compound 161],> 500,289 ± 7,IC50 [3]: 156 ± 3 µM
O=C(NC1CCCCC1)SC1CCCCC1 [Compound 11],,7.5 ± 0.4,IC50 [3]: 3.8 ± 0.01 µM
S=C(NC1CCCCC1)NC1CCCCC1 [Compound 12],,20 ± 1,"IC50 [3, 6]: 99 ± 5 µM"
[H]/N=C(\N/C(=N/[H])NCCCCCCNC(=N)NC(=N)Nc1ccc(Cl)cc1)Nc1ccc(Cl)cc1 [Compound 204],,49 ± 7,"IC50 [3, 6]: > 250 µM"
CCCCCCCCCCNC(=O)NCC [Compound 19],,,IC50 [4]: 4.8 ± 0.4 µM
CCCCCCCCCCNC(=O)NCC [Compound 28],8.3 ± 0.4,48 ± 3,"IC50 [3, 6]: 5.8 ± 0.4 µM"
CCCCCCCCCCNC(=O)NC [Compound 17],,,IC50 [4]: 28 ± 2 µM
O=C(NC1CCCCCCC1)NC1CCCCC1 [Compound 58],> 500,,IC50 [4]: 3.9 ± 0.4 µM
CNC(=O)Nc1ccc(Cl)c(Cl)c1 [Compound 32],> 500,47 ± 2,"IC50 [3, 6]: 108 ± 4 µM"
"O=C(NC1CCCCC1)NC1CCCCC1 [Compound 2, N,N′-dicyclohexylurea]",> 500,,animal death induced by leukotoxin/isoleukotoxin [5]: either blocked the animal death induced by leukotoxin/isoleukotoxin or lengthened the lives of the mice
CCCCCCCCCCN [Compound 303],2.67 ± 0.07,> 500,"IC50 [3, 6]: > 500 µM"
"C(=NC1CCCCC1)=NC1CCCCC1 [Compound 1, dicyclohexylcarbodiimide]",,,effect of time on the inhibition of mouse sEH ([3]; FIG. 1): increased with the time

# More lines, main results first:
IC50 [1] [µM],Structure (SMILES),IC50 [2] [µM],other results
> 500,O=C(NCCCc1ccccc1)NC1CCCCC1 [Compound 104],,
> 500,O=C(Nc1ccc(Oc2ccccc2)cc1)NC1CCCCC1 [Compound 140],,
> 500,CCOC(CCCNC(=O)Nc1cccc(Cl)c1)OCC [Compound 167],,
73 ± 1,CCCCCCCCNC(N)=O [Compound 101],5.5 ± 0.1,"IC50 [3, 6]: 1.04 ± 0.02 µM"
> 500,O=C(NCc1ccc(Cl)cc1)NC1CCCCC1 [Compound 193],,
> 500,CCCCCCCCCCNC(=O)Nc1cccc(Cl)c1 [Compound 172],,
> 500,CC(C)c1ccc(NC(=O)NCC2CCCCC2)cc1 [Compound 180],,
> 500,O=C(NCC1CCCCC1)Nc1cccc(Cl)c1 [Compound 179],,
> 500,O=C(NCC1CCCCC1)NC1CCCCC1 [Compound 57],,
> 500,CC1CCC(C(C)C)C(OC(=O)NC2CCCCC2)C1 (stereo not shown) [Compound 225],1.05 ± 0.03,
> 500,CCCCCCCCNC(=O)NC1CCCCC1 [Compound 168],,
> 500,O=C(NCC1CCCCC1)Nc1ccc2ccccc2c1 [Compound 169],,
